Measurements taken from ChEMBL document CHEMBL1201862, “PubChem BioAssay data set” (2004).
The source made the active and inactive calls.

Key:
Insulin-degrading enzyme = target: T1, Insulin-degrading enzyme (Homo sapiens, UniProt P14735); test: Dose Response: Fluorescence polarization-based cell-based high throughput dose response assay for inhibitors of insulin-degrading enzyme (IDE). [Related pubchem assays: 434962 (Primary screen (IDE inhibitors in singlicate)), 449730 (Counterscreen (Cytotoxicity in triplicate)), 435028 (Confirmation (IDE inhibitors in triplicate)), 434984 (Summary …; format: functional
T1 sequence (P14735 whole entry): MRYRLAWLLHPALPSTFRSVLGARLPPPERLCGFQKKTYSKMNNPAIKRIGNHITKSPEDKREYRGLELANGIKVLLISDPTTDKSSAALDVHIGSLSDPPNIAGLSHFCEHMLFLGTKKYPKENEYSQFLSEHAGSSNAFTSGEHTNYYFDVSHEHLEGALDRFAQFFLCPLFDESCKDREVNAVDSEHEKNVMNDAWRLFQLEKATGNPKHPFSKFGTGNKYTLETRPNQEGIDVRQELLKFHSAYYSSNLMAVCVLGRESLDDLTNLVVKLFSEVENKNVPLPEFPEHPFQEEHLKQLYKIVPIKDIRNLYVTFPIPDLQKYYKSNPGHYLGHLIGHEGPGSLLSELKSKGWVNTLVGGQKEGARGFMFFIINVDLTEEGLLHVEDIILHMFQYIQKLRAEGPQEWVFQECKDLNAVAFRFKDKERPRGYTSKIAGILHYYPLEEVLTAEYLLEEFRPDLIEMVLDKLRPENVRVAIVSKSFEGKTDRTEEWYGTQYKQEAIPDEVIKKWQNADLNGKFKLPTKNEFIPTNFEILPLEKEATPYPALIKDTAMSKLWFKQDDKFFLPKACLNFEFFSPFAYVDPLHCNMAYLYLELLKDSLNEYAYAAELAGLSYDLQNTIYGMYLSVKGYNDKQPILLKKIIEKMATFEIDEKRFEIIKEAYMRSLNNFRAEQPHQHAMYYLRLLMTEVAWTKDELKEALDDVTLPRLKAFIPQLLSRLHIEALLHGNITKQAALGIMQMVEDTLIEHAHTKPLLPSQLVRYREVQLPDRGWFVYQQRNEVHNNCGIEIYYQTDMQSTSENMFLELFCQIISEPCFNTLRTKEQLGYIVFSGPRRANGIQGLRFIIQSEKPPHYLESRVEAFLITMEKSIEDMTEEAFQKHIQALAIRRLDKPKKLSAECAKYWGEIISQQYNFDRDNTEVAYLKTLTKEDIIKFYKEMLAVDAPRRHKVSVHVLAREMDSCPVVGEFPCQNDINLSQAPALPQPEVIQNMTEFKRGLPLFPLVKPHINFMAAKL

[1] = Counterscreen for IDE inhibitors: Luminescence-based cell-based high throughput dose response assay to identify compounds that are cytotoxic to HEK cells. [Related pubchem assays: 434962 (Primary screen (IDE inhibitors in singlicate)), 449730 (Counterscreen (Cytotoxicity in triplicate)), 435028 (Confirmation (IDE inhibitors in triplicate)) …; format: functional; settings: HEK293
[2] = target: T2, Neuropeptide Y receptor type 1 (Homo sapiens, UniProt P25929); test: Fluorescence-based counterscreen for agonists of NPY-Y2: cell-based high-throughput dose response assay for agonists of NPY-Y1.; format: functional
T2 sequence (P25929 whole entry): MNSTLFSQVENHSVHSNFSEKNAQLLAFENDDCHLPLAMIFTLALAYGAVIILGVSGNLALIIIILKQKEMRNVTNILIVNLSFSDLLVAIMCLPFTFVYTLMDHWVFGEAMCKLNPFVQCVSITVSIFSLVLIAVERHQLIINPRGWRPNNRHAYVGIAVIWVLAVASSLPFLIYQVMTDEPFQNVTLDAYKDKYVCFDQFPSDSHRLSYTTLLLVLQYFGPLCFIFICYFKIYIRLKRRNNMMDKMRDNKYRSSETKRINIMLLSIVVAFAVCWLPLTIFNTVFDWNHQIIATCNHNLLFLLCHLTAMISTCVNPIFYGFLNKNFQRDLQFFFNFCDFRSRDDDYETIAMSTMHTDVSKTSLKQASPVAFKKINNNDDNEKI

HEK293 = test: Fluorescence-based counterscreen for potentiators or agonists of NPY-Y2: cell-based high-throughput dose response assay to identify inhibitors of cyclic nucleotide gated ion channel (CNGC) activity. In this assay, the parental HEK293 cell line transfected with a cyclic-nucleotide gated ion channel (CNGC)-based cAMP sensor is used to measure inhibition of isoproterenol-induced CNGC activity by test compound.; format: functional; settings: Homo sapiens
[3] = HEp-2 cell cytotoxicity, dose response, cytotoxicity control for RSV inhibitor project, HTS (AID 2410); format: functional; settings: human respiratory syncytial virus
[4] = target: T3, Neuropeptide Y receptor type 2 (Homo sapiens, UniProt P49146); test: Fluorescence-based cell-based high-throughput dose response assay for agonists of NPY-Y2. [Related pubchem assays: 1703 (Screening assay (CNGC inhibitors).), 1359 (Screening assay (NPY-Y2 potentiators or agonists).), 1304 (Screening assay (NPY-Y1 potentiators or agonists).), 1710 (Screening assay (NPY-Y2 agonists).), 1791 (Summary AID.)]; format: functional
T3 sequence (P49146 whole entry): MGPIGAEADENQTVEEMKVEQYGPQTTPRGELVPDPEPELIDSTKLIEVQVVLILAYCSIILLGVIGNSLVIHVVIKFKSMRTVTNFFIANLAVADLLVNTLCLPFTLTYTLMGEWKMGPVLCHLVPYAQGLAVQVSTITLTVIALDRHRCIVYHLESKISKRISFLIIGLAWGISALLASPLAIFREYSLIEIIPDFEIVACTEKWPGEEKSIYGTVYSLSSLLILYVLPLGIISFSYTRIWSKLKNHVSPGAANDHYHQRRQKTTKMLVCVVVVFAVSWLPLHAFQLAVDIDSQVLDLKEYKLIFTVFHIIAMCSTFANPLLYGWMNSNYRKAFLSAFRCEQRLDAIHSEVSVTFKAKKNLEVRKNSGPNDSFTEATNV

[5] = Luminescence Cell-Based Dose Response HTS to Identify Activators of Luciferase Translation or Activity in H4 […] Cells. [Related pubchem assays: 1829 (Project Summary), 1814 (Primary HTS)]; format: functional
[6] = target: T4, Apoptotic protease-activating factor 1 (Homo sapiens, UniProt O14727); format: functional
T4 sequence (O14727 whole entry): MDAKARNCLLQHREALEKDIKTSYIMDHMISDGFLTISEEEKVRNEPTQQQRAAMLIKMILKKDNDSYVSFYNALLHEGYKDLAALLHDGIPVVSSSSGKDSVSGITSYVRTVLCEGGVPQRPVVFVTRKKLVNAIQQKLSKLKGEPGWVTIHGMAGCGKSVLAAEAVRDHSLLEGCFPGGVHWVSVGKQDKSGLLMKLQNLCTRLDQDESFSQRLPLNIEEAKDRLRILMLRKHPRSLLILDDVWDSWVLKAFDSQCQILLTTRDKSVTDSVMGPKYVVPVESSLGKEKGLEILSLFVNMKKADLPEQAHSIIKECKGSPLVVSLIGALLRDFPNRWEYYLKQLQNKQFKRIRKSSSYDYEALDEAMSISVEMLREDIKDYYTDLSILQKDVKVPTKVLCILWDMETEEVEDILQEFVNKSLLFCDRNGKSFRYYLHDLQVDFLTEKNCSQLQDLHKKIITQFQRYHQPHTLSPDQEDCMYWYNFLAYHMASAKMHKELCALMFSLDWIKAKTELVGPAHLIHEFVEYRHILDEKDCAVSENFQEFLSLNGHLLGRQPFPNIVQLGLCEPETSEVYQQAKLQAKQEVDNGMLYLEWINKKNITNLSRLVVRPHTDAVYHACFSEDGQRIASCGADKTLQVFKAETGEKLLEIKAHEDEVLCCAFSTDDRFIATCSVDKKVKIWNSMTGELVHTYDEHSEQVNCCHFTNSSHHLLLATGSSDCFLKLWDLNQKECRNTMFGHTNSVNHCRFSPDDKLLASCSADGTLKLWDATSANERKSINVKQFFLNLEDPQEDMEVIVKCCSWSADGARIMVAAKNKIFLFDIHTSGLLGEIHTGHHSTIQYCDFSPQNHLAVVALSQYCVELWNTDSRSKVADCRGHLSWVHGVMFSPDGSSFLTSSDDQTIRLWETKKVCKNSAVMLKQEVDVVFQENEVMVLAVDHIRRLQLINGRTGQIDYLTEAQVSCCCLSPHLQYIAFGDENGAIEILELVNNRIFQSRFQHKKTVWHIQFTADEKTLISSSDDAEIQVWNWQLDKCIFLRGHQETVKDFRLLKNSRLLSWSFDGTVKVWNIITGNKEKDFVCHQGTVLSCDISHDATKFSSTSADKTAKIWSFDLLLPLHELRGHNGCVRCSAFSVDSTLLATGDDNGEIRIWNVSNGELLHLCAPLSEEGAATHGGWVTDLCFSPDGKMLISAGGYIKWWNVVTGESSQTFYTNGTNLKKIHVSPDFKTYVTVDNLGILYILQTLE

[7] = target: Serine/threonine-protein phosphatase (Homo sapiens, UniProt Q9BPW0); test: Counterscreen for inhibitors of PP1: fluorescence-based biochemical high throughput dose response assay to identify inhibitors of Protein Phosphatase 5 (PP5). [Related pubchem assays: 2034 (Summary (PP5 inhibitors)), 1987 (PP5 inhibitors in singlate), 2235 (PP1 inhibitors in singlate)]
Sequence of Serine/threonine-protein phosphatase (Q9BPW0 whole entry): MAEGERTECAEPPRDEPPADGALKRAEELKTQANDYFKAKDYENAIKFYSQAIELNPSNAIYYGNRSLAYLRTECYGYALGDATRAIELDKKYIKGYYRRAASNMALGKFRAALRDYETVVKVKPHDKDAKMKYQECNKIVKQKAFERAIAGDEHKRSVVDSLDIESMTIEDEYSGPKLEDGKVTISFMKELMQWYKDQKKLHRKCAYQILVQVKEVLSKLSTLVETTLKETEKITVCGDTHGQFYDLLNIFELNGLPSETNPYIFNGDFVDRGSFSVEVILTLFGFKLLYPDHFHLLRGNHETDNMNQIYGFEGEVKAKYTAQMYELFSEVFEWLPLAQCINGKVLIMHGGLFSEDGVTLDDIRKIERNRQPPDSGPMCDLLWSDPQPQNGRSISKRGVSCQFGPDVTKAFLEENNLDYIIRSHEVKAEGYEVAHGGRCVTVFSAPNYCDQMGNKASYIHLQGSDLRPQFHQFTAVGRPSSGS

H4 = test: Luminescence Cell-Based Dose Response HTS to Identify Activators of 5'UTR Stem-Loop Driven Prion Protein mRNA Translation in H4 Neuroglioblastoma Cells. [Related pubchem assays: 1829 (Project Summary), 1814 (Primary HTS)]; format: functional; settings: Homo sapiens
[8] = Luminescence Cell-Based Dose Confirmation HTS to Identify Activators of 5'UTR Stem-Loop Driven Alpha-Synuclein mRNA Translation in H4 Neuroglioblastoma Cells. [Related pubchem assays: 1829 (Project Summary), 1814 (Primary HTS)]; format: functional
[9] = target: T5, Mannose-6-phosphate isomerase (Homo sapiens, UniProt P34949); test: human PMI inhibitors, high substrate, primary screen, biochemical, fluorescence intensity, high mannose 6-phosphate (AID 1220)
T5 sequence (P34949 whole entry): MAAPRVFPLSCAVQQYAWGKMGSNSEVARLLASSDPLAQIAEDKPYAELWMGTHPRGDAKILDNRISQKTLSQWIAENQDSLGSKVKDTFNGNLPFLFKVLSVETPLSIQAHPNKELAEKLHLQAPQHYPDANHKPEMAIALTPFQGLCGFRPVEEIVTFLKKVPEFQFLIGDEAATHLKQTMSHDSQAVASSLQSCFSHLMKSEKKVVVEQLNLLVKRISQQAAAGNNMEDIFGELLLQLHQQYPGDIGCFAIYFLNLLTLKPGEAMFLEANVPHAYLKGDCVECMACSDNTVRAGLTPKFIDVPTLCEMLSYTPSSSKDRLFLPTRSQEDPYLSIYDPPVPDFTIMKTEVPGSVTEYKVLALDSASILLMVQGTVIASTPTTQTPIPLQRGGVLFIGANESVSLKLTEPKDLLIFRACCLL

[10] = target: Serine/threonine-protein phosphatase PP1-alpha catalytic subunit (Homo sapiens, UniProt P62136); test: PP1 phosphatase inhibitors, dose response, biochemical, fluorescence (AID 2403);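 also: phosphatase turnover of OMFP into fluorescent 3-O-methylfluorescein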
Sequence of Serine/threonine-protein phosphatase PP1-alpha catalytic subunit (P62136 whole entry): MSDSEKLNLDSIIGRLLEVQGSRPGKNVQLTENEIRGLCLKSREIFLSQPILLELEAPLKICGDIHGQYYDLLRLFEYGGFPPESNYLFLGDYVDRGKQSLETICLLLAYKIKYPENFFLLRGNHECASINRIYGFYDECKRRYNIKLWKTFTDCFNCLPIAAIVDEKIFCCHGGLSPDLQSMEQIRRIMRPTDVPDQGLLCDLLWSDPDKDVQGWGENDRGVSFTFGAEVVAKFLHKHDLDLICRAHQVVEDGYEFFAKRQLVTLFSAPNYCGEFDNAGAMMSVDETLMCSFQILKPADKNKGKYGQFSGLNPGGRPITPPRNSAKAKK

[11] = target: Mothers against decapentaplegic homolog 3 (Homo sapiens, UniProt P84022); test: Smad3 binding inhibitors, lysate ELISA, dose response, cell lysate, secondary confirmation, chemiluminescent ELISA, HEK293 lysate (AID 1058); format: functional
Sequence of Mothers against decapentaplegic homolog 3 (P84022 whole entry): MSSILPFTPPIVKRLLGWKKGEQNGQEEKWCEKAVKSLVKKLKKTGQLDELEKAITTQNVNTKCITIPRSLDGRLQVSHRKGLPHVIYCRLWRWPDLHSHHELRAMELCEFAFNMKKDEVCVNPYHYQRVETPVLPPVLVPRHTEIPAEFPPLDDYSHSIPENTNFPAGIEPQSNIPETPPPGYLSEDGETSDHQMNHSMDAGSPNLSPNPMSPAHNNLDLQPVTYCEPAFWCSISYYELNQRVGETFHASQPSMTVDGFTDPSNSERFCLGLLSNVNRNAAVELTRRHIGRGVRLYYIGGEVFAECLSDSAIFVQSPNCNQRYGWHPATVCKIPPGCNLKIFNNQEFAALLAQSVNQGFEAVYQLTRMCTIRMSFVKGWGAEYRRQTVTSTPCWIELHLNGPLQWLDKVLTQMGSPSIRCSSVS

## Cc1ccc(/C=N\NC(=O)/C(=C\Nc2nccc(C)n2)NC(=O)c2ccccc2)cc1
Insulin-degrading enzyme
  IC50: 5.43 µM (active)
[1]
  IC50: > 55.7 µM (not active)

## CC(=O)Nc1ccc(-c2cc3ccccc3o2)cc1
[2]
  EC50: 28.9 µM (not active)
HEK293
  EC50: 27.4 µM (not active)
[3]
  CC50: 28.2 µM (active)
[4]
  EC50: > 35.4 µM (not active)

## N#Cc1c(N2CCCC(O)C2)nc(N)c2c(N)nc3c(c12)CC(=O)N3C12CC3CC(CC(C3)C1)C2 (centres undefined)
[5]
  EC50: 9.64 µM (active)
[6]
  IC50: 73 µM (active)
[7]
  IC50: 29.5 µM (not active)
H4
  EC50: > 120 µM (not active)
[8]
  EC50: 12.6 µM (active)
[9]
  IC50: > 50 µM (not active)
[10]
  IC50: > 67 µM (not active)

## COc1ccc(C(c2cc3c(cc2O)OCO3)N2CCOCC2)c(OC)c1OC (centres undefined)
[11]
  IC50: 3.97 µM (not active)
